Experimental findings from patent publication US6444617B1, “Fused-heterocycle dicarboxylic acid diamide derivatives or salts thereof, herbicide and usage thereof” (Nihon Nohyaku Co., Ltd., priority 1998, dated 2002) are described below.

Holding throughout (assay type): in vivo
Data set [1] has as its system forxtail grass (Alopecurus aequalis var. amurensis Ohwi), Am. In words: Test Example 4: herbicidal effect on upland weeds after emergence. Conditions: dosage 5 kg/ha; sprayed after emergence; judged 14 days after treatment. In short, it runs like this: (§1)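 Post-emergence foliar spray at a prescribed concentration, applied once the sown weeds and soybean reached defined leaf stages in soil vats; herbicidal effect and soybean injury scored after 14 days.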

For data set [2], the system named is barnyard grass (Echinochloa crus-galli Beauv.), Ec. The description is as above. The conditions noted are these: dosage 5 kg/ha; sprayed after emergence; judged 14 days after treatment. In a few lines: as §1
The subject of data set [3] is velvetleaf (Abutilon theophtasti L.), At. Described as above. Conditions: dosage 5 kg/ha; sprayed after emergence; judged 14 days after treatment. In a few lines: as §1
Data set [4] deals with cleavers (Galium aparine L.), Ga. The description is as above. Conditions: dosage 5 kg/ha; sprayed after emergence; judged 14 days after treatment. In a few lines:
as §1

Data set [5] deals with bird's eye speedwell (Veronica persica Poir.), Vp. The description is as above. The conditions noted are these: dosage 5 kg/ha; sprayed after emergence; judged 14 days after treatment. In a few lines: as §1
Data set [6] has as its system cocklebur (Xanthium strumarium L.), Xs. The data set is described as above. Conditions: dosage 5 kg/ha; sprayed after emergence; judged 14 days after treatment. In a few lines:
as §1

The test system of data set [7] is monochoria (Monochoria vaginalis Presl). The experiment in a line: Test Example 2: herbicidal effect on paddy field weeds after emergence. The conditions noted are these: Dosage 5 kg/ha; one-leaved stage; 21 days after treatment. In a few lines:
(§2)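 Weeds were sown in 1/10000 are pots of soil flooded to paddy conditions and grown to the one-leaf stage, then the soil was treated with a solution of compound at a predetermined dosage.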

Data set [8] relates to bulrush (Scirpus juncoides Roxb.). The description is as above. Conditions: Dosage 5 kg/ha; one-leaved stage; 21 days after treatment. In short, it runs like this:
as §2

For data set [9], the system named is barnyard grass (Echinochloa crus-galli Beauv.). Described as above. The conditions noted are these: Dosage 5 kg/ha; one-leaved stage; 21 days after treatment. In a few lines:
as §2

The subject of data set [10] is bulrush (Scirpus juncoides Roxb.). The experiment in a line: Test Example 1: herbicidal effect on paddy field weeds before emergence. The conditions noted are these: Dosage 5 kg/ha. In short, it runs like this: (§3)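 Seeds of both weeds, still ungerminated, in soil pots held under paddy conditions received a set dose of test solution as soil treatment. After twenty-one days, control relative to untreated pots was calculated and rated on a scoring scale.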

Data set [11] deals with barnyard grass (Echinochloa crus-galli Beauv.). The description is as above. The conditions noted are these: Dosage 5 kg/ha. In short, it runs like this:
as §3

Data set [12] relates to forxtail grass (Alopecurus aequalis var. amurensis Ohwi), Am. The experiment in a line: Test Example 3: herbicidal effect on upland weeds before emergence. The conditions noted are these: foxtail grass, dosage 5 kg/ha. In short, it runs like this: (§4)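 Read-out is the weed-killing rate, scored fourteen days after a single spray application made before the weeds emerged. The spray was a liquid agent carrying the active compound at a prescribed dose.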

The test system of data set [13] is barnyard grass (Echinochloa crus-galli Beauv.), Ec. Described as above. Conditions: dosage 5 kg/ha. In short, it runs like this: as §4
Data set [14] has as its system velvetleaf (Abutilon theophtasti L.), At. The description is as above. The conditions noted are these: dosage 5 kg/ha. In a few lines: as §4
The subject of data set [15] is cleavers (Galium aparine L.), Ga. The data set is described as above. Conditions: dosage 5 kg/ha. In short, it runs like this: as §4
Data set [16] concerns bird's eye speedwell (Veronica persica Poir.), Vp. Described as above. Conditions: dosage 5 kg/ha. In a few lines:
as §4

In data set [17] the test system is cocklebur (Xanthium strumarium L.), Xs. The data set is described as above. The conditions noted are these: dosage 5 kg/ha. In a few lines: as §4
The test system of a further data set is wheat. In words: Test Example 4: phytotoxicity to upland crop plants, treatment after emergence. Conditions: dosage 5 kg/ha, sprayed after emergence, judged 14 days after treatment. In a few lines: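 Post-emergence foliar spray, compound at prescribed concentration, applied at defined leaf stages; weeds plus soybean/wheat grown in soil vats. Read-out: weed-killing rate and crop injury, 14 d post-treatment.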

The subject of the next data set is soybean plant. The description is as above. The conditions noted are these: dosage 5 kg/ha, sprayed after emergence, judged 14 days after treatment. In a few lines: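 Weeds, soybean and wheat were sown in soil-filled vats, covered with soil and grown to set leaf stages before a post-emergence spray of an agent containing the compound at a prescribed concentration. Weed-killing rate and crop phytotoxicity were assessed 14 days after treatment.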

Another data set deals with soybean plant (So). The experiment in a line: Test Example 3: phytotoxicity to upland crop plants, treatment before emergence. The conditions noted are these: dosage 5 kg/ha. In a few lines:
(§5)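 Crop injury to soybean and wheat was judged on a phytotoxicity scale 14 days after a pre-emergence spray of a liquid formulation at a prescribed concentration of compound.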

The next data set has as its system wheat (Wh). Described as above. Conditions: dosage 5 kg/ha. In a few lines: as §5

With `CCCNC(=O)c1nc2cc3c(cc2cc1C(=O)Nc1c(CC)ccc(Cl)c1CC)OCO3` [compound 334], the “Herbicidal effect Am” value is 3 (Weed-killing rate is 70-89%.) in [1] and 4 (Weed-killing rate is 90-99%.) in data set [12]. Besides, the “Herbicidal effect Ec” value in data set [2] and in [13] was 4 (Weed-killing rate is 90-99%.) throughout. Further, the “Herbicidal effect At” value in data set [3] is reported as 4 (Weed-killing rate is 90-99%.); in data set [14] it was 5 (Weed-killing rate is 100%.). In addition, the “Herbicidal effect Ga” value in data set [4] and in data set [15] was 3 (Weed-killing rate is 70-89%.) each time. In addition, the “Herbicidal effect Vp” value in data set [5] and in data set [16] was 4 (Weed-killing rate is 90-99%.) throughout. For the same molecule, the “Herbicidal effect Xs” value in data set [6] and in data set [17] was 3 (Weed-killing rate is 70-89%.) each time. The “Post-emergence treatment Monochoria (herbicidal effect)” value (from here on “Post-emergence treatment Monochoria”) in [7] is 5 (Weed-killing rate is 100%.). Moreover, in [8], the “Post-emergence treatment Bulrush (herbicidal effect)” value (shortened to “Post-emergence treatment Bulrush”) is reported as 4 (Weed-killing rate is 90-99%.). Besides, the “Post-emergence treatment Barnyard grass (herbicidal effect)” value (“Post-emergence treatment Barnyard grass” for short) in data set [9] is reported as 4 (Weed-killing rate is 90-99%.). The “Pre-emergence treatment Bulrush (herbicidal effect)” value (shortened to “Pre-emergence treatment Bulrush”) in data set [10] was 4 (Weed-killing rate is 90-99%.). Also, the “Pre-emergence treatment Barnyard grass (herbicidal effect)” value (“Pre-emergence treatment Barnyard grass” below) in data set [11] is 5 (Weed-killing rate is 100%.). In addition, the “Phytotoxicity Wh” value with wheat and in the data set with wheat (Wh) was 2 (Crop-killing rate is 40-69%.) each time. Besides, the “Phytotoxicity So” value is 1 (Crop-killing rate is 1-39%.) with soybean plant and 0 (Crop-killing rate is 0-20% (No Phytotoxicity).) in the data set with soybean plant (So).
In the case of `CCc1ccc(Cl)c(CC)c1NC(=O)c1cc2cc3c(cc2nc1C(=O)NCC(C)C)OCO3` [compound 339], the “Herbicidal effect Am” value in data set [1] is recorded as 3 (Weed-killing rate is 70-89%.); in data set [12] it was 4 (Weed-killing rate is 90-99%.). Moreover, the “Herbicidal effect Ec” value in data set [2] and in [13] was 4 (Weed-killing rate is 90-99%.) in each case. The “Herbicidal effect At” value in data set [3] and in data set [14] was 4 (Weed-killing rate is 90-99%.) in each case. Besides, the “Herbicidal effect Ga” value in data set [4] is given as 2 (Weed-killing rate is 40-69%.); in [15] it was 3 (Weed-killing rate is 70-89%.). In addition, the “Herbicidal effect Vp” value in data set [5] and in data set [16] was 4 (Weed-killing rate is 90-99%.) throughout. Further, the “Herbicidal effect Xs” value in [6] and in data set [17] was 2 (Weed-killing rate is 40-69%.) each time. The “Post-emergence treatment Monochoria” value in data set [7] was 4 (Weed-killing rate is 90-99%.). In addition, the “Post-emergence treatment Bulrush” value in data set [8] was 2 (Weed-killing rate is 40-69%.). Further, in data set [9], the “Post-emergence treatment Barnyard grass” value is listed as 3 (Weed-killing rate is 70-89%.). The “Pre-emergence treatment Bulrush” value in data set [10] is given as 3 (Weed-killing rate is 70-89%.). For the same molecule, the “Pre-emergence treatment Barnyard grass” value in data set [11] was 4 (Weed-killing rate is 90-99%.). For the same molecule, the “Phytotoxicity Wh” value is recorded as 2 (Crop-killing rate is 40-69%.) with wheat and 1 (Crop-killing rate is 1-39%.) in the data set with wheat (Wh). In addition, the “Phytotoxicity So” value was 1 (Crop-killing rate is 1-39%.) in the data set with soybean plant and 0 (Crop-killing rate is 0-20% (No Phytotoxicity).) in the data set on soybean plant (So).
For `CCc1ccc(Cl)c(CC)c1NC(=O)c1cc2cc3c(cc2nc1C(=O)NC1CCCC1)OCO3` [compound 343], the figures for the “Herbicidal effect Am” value in data set [1] and in data set [12] were 2 (Weed-killing rate is 40-69%.) and 3 (Weed-killing rate is 70-89%.), respectively. Moreover, the “Herbicidal effect Ec” value in data set [2] and in data set [13] was 4 (Weed-killing rate is 90-99%.) in each case. For the same molecule, the “Herbicidal effect At” value in [3] and in data set [14] was 3 (Weed-killing rate is 70-89%.) in each case. The “Herbicidal effect Ga” value in data set [4] is on record as 2 (Weed-killing rate is 40-69%.); in data set [15], 3 (Weed-killing rate is 70-89%.). For the same molecule, the “Herbicidal effect Vp” value in data set [5] was 3 (Weed-killing rate is 70-89%.); in [16], 4 (Weed-killing rate is 90-99%.). Also, the “Herbicidal effect Xs” value in data set [6] and in data set [17] was 2 (Weed-killing rate is 40-69%.) in each case. Besides, the “Post-emergence treatment Monochoria” value in data set [7] is on record as 5 (Weed-killing rate is 100%.). Also, in data set [8], the “Post-emergence treatment Bulrush” value was 3 (Weed-killing rate is 70-89%.). Moreover, the “Post-emergence treatment Barnyard grass” value in data set [9] is given as 3 (Weed-killing rate is 70-89%.). In data set [10], the “Pre-emergence treatment Bulrush” value is reported as 3 (Weed-killing rate is 70-89%.). In addition, the “Pre-emergence treatment Barnyard grass” value in data set [11] is on record as 5 (Weed-killing rate is 100%.). For the same molecule, the “Phytotoxicity Wh” value in the data set on wheat and in the data set with wheat (Wh) was 0 (Crop-killing rate is 0-20% (No Phytotoxicity).) in each case. For the same molecule, the “Phytotoxicity So” value in the data set on soybean plant and in the data set with soybean plant (So) was 0 (Crop-killing rate is 0-20% (No Phytotoxicity).) each time.
For the molecule `CCCNC(=O)c1nc2ncccc2cc1C(=O)Nc1c(CC)ccc(Cl)c1CC` [compound 361], the “Herbicidal effect Am” value in [1] and in [12] was 5 (Weed-killing rate is 100%.) in each case. Further, the “Herbicidal effect Ec” value in [2] and in [13] was 5 (Weed-killing rate is 100%.) in each case. In addition, the “Herbicidal effect At” value in data set [3] and in [14] was 5 (Weed-killing rate is 100%.) in each case. In addition, the “Herbicidal effect Ga” value in data set [4] and in [15] was 5 (Weed-killing rate is 100%.) each time. Also, the “Herbicidal effect Vp” value in [5] and in data set [16] was 5 (Weed-killing rate is 100%.) in each case. In addition, the “Herbicidal effect Xs” value in data set [6] and in data set [17] was 5 (Weed-killing rate is 100%.) each time. The “Post-emergence treatment Monochoria” value in data set [7] is 5 (Weed-killing rate is 100%.). The “Post-emergence treatment Bulrush” value in data set [8] was 5 (Weed-killing rate is 100%.). The “Post-emergence treatment Barnyard grass” value in data set [9] was 5 (Weed-killing rate is 100%.). The “Pre-emergence treatment Bulrush” value in data set [10] is on record as 5 (Weed-killing rate is 100%.). Further, the “Pre-emergence treatment Barnyard grass” value in data set [11] is on record as 5 (Weed-killing rate is 100%.). Besides, the figures for the “Phytotoxicity Wh” value in the data set on wheat and in the data set on wheat (Wh) were 5 (Crop-killing rate is 100%.) and 4 (Crop-killing rate is 90-99%.), respectively. Also, the “Phytotoxicity So” value in the data set on soybean plant and in the data set with soybean plant (So) was 4 (Crop-killing rate is 90-99%.) in each case.
